The nature of data set [1]: Predicted hepatic clearance from hepatic microsomes (human). It is filed as in vitro ADME. As for the experimental part:
Intrinsic clearance: Human or rat hepatic microsomes (0.5 mg/mL) and 1 µM test compound were incubated in 100 mM potassium phosphate pH 7.4 buffer with 3 mM MgCl2 at 37°C with constant shaking.
After a 5 min preincubation, the reaction was initiated by addition of NADPH (1 mM). At selected time intervals (0, 3, 7, 15, 25, and 45 min), aliquots were taken and subsequently placed into a 96-well plate containing cold acetonitrile with internal standard (50 ng/mL carbamazepine). Plates were then centrifuged at 3000 rcf (4° C) for 10 min, and the supernatant was transferred to a separate 96-well plate and diluted 1:1 with water for LC/MS/MS analysis. The in vitro half-life (T 1/2, min, Eq. 1), intrinsic clearance (CLint, mL/min/kg, Eq. 2) and subsequent predicted hepatic clearance (CLhep, mL/min/kg, Eq. 3) was determined […]
employing the following equations: […]
where k represents the slope from linear regression analysis of the natural log percent remaining of test compound as a function of incubation time
0.693 mL incubation 45 mg microsomes 20a gram liver
(2) CLint = in vitroT x mg microsomes x gram liver x kg body wt […]
ascale-up factors: of 20 (human) or 45 (rat) […]
where Qh (hepatic blood flow, mL/min/kg) is 21 (human) or 70 (rat).
LC/MS/MS Bioanalysis of Samples from Plasma Protein Binding and Intrinsic Clearance Assays. Samples were analyzed on a Thermo Electron TSQ Quantum Ultra triple quad mass spectrometer (San Jose, CA) via electrospray ionization (ESI) with two Themo Electron Accella pumps (San Jose, CA), and a Leap Technologies CTC PAL autosampler (Carrboro, NC). Analytes were separated by gradient elution on a dual column system with two Thermo Hypersil Gold (2.1 x 30 mm, 1.9 µm) columns (San Jose, CA) thermostated at 40°C. HPLC mobile phase A was 0.1% formic acid in water and mobile phase B was 0.1% formic acid in acetonitrile. The gradient […]
95% B for 0.2 min; returned to 10% B in 0.1 min. The total run time was 1.3 min and the HPLC flow rate was 0.8 mL/min. While pump 1 ran the gradient method, pump 2 equilibrated the alternate column isocratically at 10% B. Compound optimization, data collection and […]

Another data set addresses rat mGlu1 (Rattus norvegicus, UniProt P23385). The experiment in a line: mGlu1 PAM functional assay (rat). It is filed as cell-based.
A short description of data set [2]: Rat CNS penetration (brain:plasma). It is filed as in vivo. The conditions noted are these: male, Sprague-Dawley, intraperitoneal, 10 mg/kg; for Kp at 0.25 h: brain and plasma, rat brain:plasma; for Kp uu at 0.25 h: rat, brain/plasma. As to the method: In vivo DMPK experimental
Compounds were formulated as 10% tween 80 micro suspensions in sterile water at the concentration of 1 mg/ml and administered intraperitoneally to male Sprague- Dawley rats weighing 225 to 250 g (Harlan, Inc., Indianapolis, IN) at the dose of 10 mg/kg. The rat blood and brain were collected at 0.25 hr. Animals were euthanized and decapitated, and the brains were removed, thoroughly washed in cold phosphate buffered saline and immediately frozen on dry ice.
Trunk blood was collected in EDTA Vacutainer tubes, and plasma was separated by centrifugation and stored at -80°C until analysis. Plasma was separated by centrifugation (4000 rcf, 4°C) and stored at […] until analysis. On the day of analysis, frozen whole-rat brains were weighed and diluted with 1:3 (w/w) parts of 70:30 isopropanol:water. The mixture was then subjected to mechanical homogenation employing a Mini-Beadbeater™ and 1.0 mm Zirconia/Silica Beads (BioSpec Products) followed by centrifugation. The sample extraction of plasma (20 μL) or brain homogenate (20 μL) was performed by a method based on protein precipitation using three volumes of ice-cold acetonitrile containing an internal standard (50 ng/mL carbamazepine). The samples were centrifuged (3000 rcf, 5 min) and supernatants transferred and diluted 1:1 (supernatant: water) into a new 96 well plate, which was then sealed in preparation for LC/MS/MS […]
In vivo samples were analyzed via electrospray ionization (ESI) on an AB Sciex API-5500 QTrap (Foster City, CA) instrument that was coupled with Shimadzu LC-20AD pumps (Columbia, MD) and a Leap Technologies CTC PAL auto-sampler (Carrboro, NC). Analytes were separated by gradient elution using a Fortis C18 3.0 x 50 mm, 3 µm column (Fortis Technologies Ltd, Cheshire, UK) thermostated at 40°C. HPLC mobile phase A was 0.1% formic acid in water (pH unadjusted), mobile phase B was 0.1% formic acid in acetonitrile (pH unadjusted). The gradient started at 30% […]
min and returned to 30% B in 0.1 min followed by a re-equilibration (0.9 min). The total run time was 2.5 min and the HPLC flow rate was 0.5 mL/min. The source temperature was set at 500°C and mass spectral analyses were performed using multiple reaction monitoring (MRM), with transitions specific for each compound utilizing a Turbo-Ionspray® source in positive ionization […]
mode (5.0 kV spray voltage). The calibration curves were constructed in blank plasma. All data were analyzed using AB Sciex Analyst software v1.5.1.
All animal study procedures were approved by the Institutional Animal Care and Use Committee and were conducted in accordance with the National Institutes of Health regulations of animal care covered in Principles of Laboratory Animal Care (National Institutes of Health). […]
GraphPad Prism (version 4.03, GraphPad, La Jolla, CA). […]

Data set [3] is described as follows: Rat IV/PO pharmacokinetics. It is filed as in vivo. The settings on record: for clearance / Vd / half-life / Tmax: plasma; for clearance / Vd: rat IV; for clearance: read-out: CLp; for F po / Tmax: rat PO; for Vd / half-life: rat; for Vd: iv, read-out: Vss; for half-life: read-out: Elimination t1/2 (converted).

Sequence of rat mGlu1 (P23385 19-1199): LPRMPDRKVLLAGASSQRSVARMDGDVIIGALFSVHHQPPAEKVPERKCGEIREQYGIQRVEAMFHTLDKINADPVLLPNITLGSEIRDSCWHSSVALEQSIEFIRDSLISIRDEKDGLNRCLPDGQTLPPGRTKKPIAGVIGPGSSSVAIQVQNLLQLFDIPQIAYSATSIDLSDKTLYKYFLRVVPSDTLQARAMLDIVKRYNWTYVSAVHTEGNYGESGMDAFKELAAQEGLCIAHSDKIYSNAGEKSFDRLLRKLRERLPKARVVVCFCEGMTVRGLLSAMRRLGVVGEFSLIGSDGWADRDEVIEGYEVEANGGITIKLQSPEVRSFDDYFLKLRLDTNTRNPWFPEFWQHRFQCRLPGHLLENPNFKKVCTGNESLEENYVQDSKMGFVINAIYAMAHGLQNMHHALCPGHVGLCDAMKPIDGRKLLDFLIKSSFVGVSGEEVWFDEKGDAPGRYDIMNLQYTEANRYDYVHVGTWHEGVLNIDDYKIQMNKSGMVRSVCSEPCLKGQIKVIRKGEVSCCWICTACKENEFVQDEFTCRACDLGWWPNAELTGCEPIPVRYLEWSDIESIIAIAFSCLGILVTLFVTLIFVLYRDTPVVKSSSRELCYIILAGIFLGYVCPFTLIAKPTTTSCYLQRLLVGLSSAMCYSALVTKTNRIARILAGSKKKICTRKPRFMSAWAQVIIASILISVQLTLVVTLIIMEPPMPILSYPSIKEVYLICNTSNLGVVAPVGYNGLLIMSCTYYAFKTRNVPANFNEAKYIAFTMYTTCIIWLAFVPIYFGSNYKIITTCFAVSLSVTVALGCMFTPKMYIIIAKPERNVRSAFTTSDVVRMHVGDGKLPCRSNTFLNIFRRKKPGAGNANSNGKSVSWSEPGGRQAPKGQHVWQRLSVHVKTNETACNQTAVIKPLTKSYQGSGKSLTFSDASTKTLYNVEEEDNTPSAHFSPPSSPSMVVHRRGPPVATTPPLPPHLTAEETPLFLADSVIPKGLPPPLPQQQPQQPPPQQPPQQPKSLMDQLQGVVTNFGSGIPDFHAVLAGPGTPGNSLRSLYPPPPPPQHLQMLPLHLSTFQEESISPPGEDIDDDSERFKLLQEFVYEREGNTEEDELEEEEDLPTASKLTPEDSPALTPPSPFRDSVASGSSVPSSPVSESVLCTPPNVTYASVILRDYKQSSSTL

As for `Cn1cc(-c2cc(CNC(=O)c3cc(-c4ccco4)ccc3Cl)n(C)n2)cn1` [compound 4], the “Predicted CLhep (h)” value in data set [1] is given as 15.1 mL/min/kg. For the same compound, at rat mGlu1, the EC50 (commonly the concentration at which the effect is half-maximal) turned out to be 37 nM and the “rat mGlu1 Glu Max” value came to 137%. Moreover, in data set [2], the Kp (usually the ratio of the level in a tissue or fluid to that in plasma or blood) at 0.25 h came to 0.89 and the Kp uu at 0.25 h was found to be 0.98.

Consider `Cn1nc(-c2ccnn2C)cc1CNC(=O)c1cc(-n2cccn2)ccc1Cl` [compound 5], for which the “Predicted CLhep (h)” value in data set [1] is 4.6 mL/min/kg. Besides, at rat mGlu1, the EC50 came to 558 nM and the “rat mGlu1 Glu Max” value came out at 105%. Moreover, in data set [3], the clearance is 2.9 mL/min/kg, the F po was 45.7%, the Vd came to 0.63 L/kg and the half-life is 180 min. In data set [2], this compound returned a Kp at 0.25 h of 0.3 and a Kp uu at 0.25 h of 0.52.

`Cc1nc2ccccc2cc1CNC(=O)c1cc(-n2cccn2)ccc1Cl` [compound 6]: the “Predicted CLhep (h)” value in data set [1] is 15.8 mL/min/kg. Further, in data set [3], the clearance is 15.3 mL/min/kg, the Tmax (commonly the time from dosing to the highest level) was 30 min, the F po is 64% and the Vd is 1.64 L/kg. The half-life in data set [3] was 66 min.

Turning to `Cc1nc2c(F)cccc2cc1CNC(=O)c1cc(-n2cccn2)ccc1Cl` [compound 7], the “Predicted CLhep (h)” value in data set [1] is on record as 13.3 mL/min/kg. Moreover, in data set [3], the clearance was 8 mL/min/kg, the Vd was 1 L/kg and the half-life is 126 min. Besides, the Kp at 0.25 h in data set [2] amounted to 0.98.

As for `Cc1nc(C2CC2)ccc1CNC(=O)c1cc(-n2cccn2)ccc1Cl` [compound 8], in data set [1], the “Predicted CLhep (h)” value is reported as 9.9 mL/min/kg. For the same compound, at rat mGlu1, the EC50 worked out at 107 nM and the “rat mGlu1 Glu Max” value turned out to be 94%. In data set [3], the clearance came out at 26.4 mL/min/kg, the Tmax is 30 min, the F po was found to be 42.8% and the Vd is 5.1 L/kg. Further, in data set [3], the half-life is 126 min. In data set [2], this compound yielded a Kp at 0.25 h of 1.8 and a Kp uu at 0.25 h of 1.2.

These data come from publication PMC11843613, “Further Optimization of the mGlu1 PAM VU6024578/BI02982816: Discovery and Characterization of VU6033685” (ACS Chemical Neuroscience, 2025).
